Measured values reported in patent US11512090B2, “Muscarinic acetylcholine M1 receptor antagonists” (PIPELINE THERAPEUTICS, INC., priority 2018, dated 2022).
Read-outs that look alike come from different tables or passages of the source.

What was measured:
Type in all cases: cell-based
M3 = M3 (Homo sapiens, UniProt P20309); test: In vitro functional assay of muscarinic acetylcholine receptor activity, M3; settings: antagonist IC50 at M3; read-out: M3 IC50
M2 = target: T1, M2 (Homo sapiens, UniProt P08172); test: In vitro functional assay of muscarinic acetylcholine receptor activity, M2
T1 sequence (P08172 1-466): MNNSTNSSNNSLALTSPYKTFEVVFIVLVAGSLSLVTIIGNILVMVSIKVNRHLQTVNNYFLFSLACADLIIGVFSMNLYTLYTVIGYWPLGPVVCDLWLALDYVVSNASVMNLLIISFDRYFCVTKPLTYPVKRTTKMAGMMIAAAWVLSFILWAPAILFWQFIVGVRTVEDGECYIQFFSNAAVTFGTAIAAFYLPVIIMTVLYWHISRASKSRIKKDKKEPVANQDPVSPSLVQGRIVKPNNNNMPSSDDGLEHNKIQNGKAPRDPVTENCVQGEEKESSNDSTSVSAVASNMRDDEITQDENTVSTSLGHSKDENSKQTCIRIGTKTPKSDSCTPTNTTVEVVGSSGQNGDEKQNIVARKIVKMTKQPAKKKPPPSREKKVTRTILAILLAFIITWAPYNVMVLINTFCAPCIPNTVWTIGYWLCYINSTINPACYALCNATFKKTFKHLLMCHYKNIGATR

human M1 receptor = target: T2, human M1 receptor (Homo sapiens, UniProt P11229); test: In vitro functional assay of muscarinic acetylcholine receptor activity (aequorin calcium flux, antagonist mode vs EC80 acetylcholine), M1
T2 sequence (P11229 1-460): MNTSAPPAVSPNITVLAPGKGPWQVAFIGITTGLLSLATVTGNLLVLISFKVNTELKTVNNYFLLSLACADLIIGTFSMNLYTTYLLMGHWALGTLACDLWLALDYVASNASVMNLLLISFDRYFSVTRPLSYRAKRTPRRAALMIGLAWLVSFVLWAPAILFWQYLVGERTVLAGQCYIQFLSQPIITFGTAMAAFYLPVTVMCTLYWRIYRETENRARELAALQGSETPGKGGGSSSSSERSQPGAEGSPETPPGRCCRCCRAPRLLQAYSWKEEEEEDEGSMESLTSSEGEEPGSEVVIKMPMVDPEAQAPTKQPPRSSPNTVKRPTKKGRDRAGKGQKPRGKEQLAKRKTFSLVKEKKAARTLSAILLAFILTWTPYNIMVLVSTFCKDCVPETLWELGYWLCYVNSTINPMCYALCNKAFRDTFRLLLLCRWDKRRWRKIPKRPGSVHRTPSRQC
Summary of the method: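 Antagonism at M1 was measured as a concentration-dependent reduction of the EC80 acetylcholine-evoked aequorin luminescence, from which IC50 was derived. Human M1 CHO-K1 aequorin cells were first loaded with 5 uM coelenterazine h for 4 h and exposed to compound for 30 min at room temperature.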

[1] = antagonist IC50 at M2, read-out: M2 IC50
[2] = CHO-K1 cells stably expressing human M1 receptor with Aequorin, decrease in EC80 acetylcholine response, read-out: M1 IC50

Sequence of M3 (P20309 whole entry): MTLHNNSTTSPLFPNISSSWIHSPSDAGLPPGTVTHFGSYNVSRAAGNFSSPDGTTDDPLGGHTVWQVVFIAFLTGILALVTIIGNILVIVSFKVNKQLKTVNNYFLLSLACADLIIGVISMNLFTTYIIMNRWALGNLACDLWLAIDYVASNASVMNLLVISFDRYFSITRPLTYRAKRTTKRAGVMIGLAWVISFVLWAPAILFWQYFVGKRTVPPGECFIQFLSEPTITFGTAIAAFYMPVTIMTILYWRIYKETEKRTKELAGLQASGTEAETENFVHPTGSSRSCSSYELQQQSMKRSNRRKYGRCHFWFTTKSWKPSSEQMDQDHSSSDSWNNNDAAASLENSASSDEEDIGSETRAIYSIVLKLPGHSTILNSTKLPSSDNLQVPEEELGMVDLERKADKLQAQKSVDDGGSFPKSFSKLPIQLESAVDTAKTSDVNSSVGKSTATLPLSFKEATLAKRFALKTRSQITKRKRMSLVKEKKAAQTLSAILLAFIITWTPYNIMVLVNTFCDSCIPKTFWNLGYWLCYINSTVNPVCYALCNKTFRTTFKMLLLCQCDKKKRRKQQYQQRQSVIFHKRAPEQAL

| IC50 (M3) | IC50 (M2; [1]) | IC50 (human M1 receptor; [2]) | Compound | IC50 (human M1 receptor) | IC50 (M2) |
| --- | --- | --- | --- | --- | --- |
| > 10000 nM | > 10000 nM | > 10000 nM | Cc1ncccc1N1CCN(C(=O)CCCc2cccc3ncccc23)[C@@H](C)C1 [Example 93, (S)-1-(2-methyl-4-(2-methylpyridin-3-yl)piperazin-1-yl)-4-(quinolin-5-yl)butan-1-one] | – | – |
| 1000 to 10000 nM | 100 to 1000 nM | 100 to 1000 nM | Cc1cc(F)cnc1N1CCN(C(=O)CCCc2cccc3ncc(CO)cc23)[C@@H](C)C1 [Example 94, (S)-1-(4-(5-fluoro-3-methylpyridin-2-yl)-2-methylpiperazin-1-yl)-4-(3-(hydroxymethyl)quinolin-5-yl)butan-1-one] | – | – |
| > 10000 nM | 1000 to 10000 nM | 100 to 1000 nM | Cc1cc(F)cnc1N1CCN(C(=O)CCS(=O)(=O)c2cccc3ncccc23)[C@@H](C)C1 [Example 96, (S)-1-(4-(5-fluoro-3-methylpyridin-2-yl)-2-methylpiperazin-1-yl)-3-(quinolin-5-ylsulfonyl)propan-1-one] | – | – |
| 1000 to 10000 nM | 1000 to 10000 nM | 1000 to 10000 nM | Cc1cc(F)cnc1N1CCN(C(=O)CCCS(=O)(=O)c2cccc3ncsc23)[C@@H](C)C1 [Example 97, (S)-4-(benzo[d]thiazol-7-ylsulfonyl)-1-(4-(5-fluoro-3-methylpyridin-2-yl)-2-methylpiperazin-1-yl)butan-1-one] | – | – |
| > 10000 nM | 1000 to 10000 nM | 1000 to 10000 nM | Cc1nc2cccc(S(=O)(=O)CCCC(=O)N3CCN(c4ncc(F)cc4C)C[C@@H]3C)c2o1 [Example 98, (S)-1-(4-(5-fluoro-3-methylpyridin-2-yl)-2-methylpiperazin-1-yl)-4-((2-methylbenzo[d]oxazol-7-yl)sulfonyl)butan-1-one] | – | – |
| > 10000 nM | 1000 to 10000 nM | 1000 to 10000 nM | O=C(CCS(=O)(=O)c1cccc2ncsc12)N1CCN(c2ccnc(C(F)(F)F)c2)CC1 [Example 99, 3-(benzo[d]thiazol-7-ylsulfonyl)-1-(4-(2-(trifluoromethyl)pyridin-4-yl)piperazin-1-yl)propan-1-one] | – | – |
| > 10000 nM | 1000 to 10000 nM | 100 to 1000 nM | C[C@H]1CN(c2cnccc2Cl)CCN1C(=O)CCS(=O)(=O)c1cccc2ncsc12 [Example 101, (S)-3-(benzo[d]thiazol-7-ylsulfonyl)-1-(4-(4-chloropyridin-3-yl)-2-methylpiperazin-1-yl)propan-1-one] | – | – |
| 1000 to 10000 nM | 1000 to 10000 nM | < 100 nM | O=C(CCS(=O)(=O)c1cccc2ncsc12)N1CCN(c2ccc(C(F)(F)F)cn2)CC1 [Example 102, 3-(benzo[d]thiazol-7-ylsulfonyl)-1-(4-(5-(trifluoromethyl)pyridin-2-yl)piperazin-1-yl)propan-1-one] | – | – |
| 1000 to 10000 nM | 1000 to 10000 nM | 1000 to 10000 nM | O=C(CCS(=O)(=O)c1cccc2ncsc12)N1CCN(c2c(Cl)cncc2Cl)CC1 [Example 105, 3-(benzo[d]thiazol-7-ylsulfonyl)-1-(4-(3,5-dichloropyridin-4-yl)piperazin-1-yl)propan-1-one] | – | – |
| > 10000 nM | 1000 to 10000 nM | 1000 to 10000 nM | O=C(CCS(=O)(=O)c1cccc2nccn12)N1CCN(c2ccc(C(F)(F)F)cn2)CC1 [Example 106, 3-(imidazo[1,2-a]pyridin-5-ylsulfonyl)-1-(4-(5-(trifluoromethyl)pyridin-2-yl)piperazin-1-yl)propan-1-one] | – | – |
| 1000 to 10000 nM | > 10000 nM | 1000 to 10000 nM | Cc1cncc(Cl)c1N1CCN(C(=O)CCS(=O)(=O)c2cccc3ncsc23)CC1 [Example 107, 3-(benzo[d]thiazol-7-ylsulfonyl)-1-(4-(3-chloro-5-methylpyridin-4-yl)piperazin-1-yl)propan-1-one] | – | – |
| 1000 to 10000 nM | > 10000 nM | 100 to 1000 nM | Cc1cncc(Cl)c1N1CCN(C(=O)CCS(=O)(=O)c2cccc3ncsc23)[C@@H](C)C1 [Example 108, (S)-3-(benzo[d]thiazol-7-ylsulfonyl)-1-(4-(3-chloro-5-methylpyridin-4-yl)-2-methylpiperazin-1-yl)propan-1-one] | – | – |
| > 10000 nM | > 10000 nM | 1000 to 10000 nM | Cc1nc2cccc(S(=O)(=O)CCC(=O)N3CCN(c4ccc(C(F)(F)F)cn4)CC3)c2o1 [Example 109, 3-((2-methylbenzo[d]oxazol-7-yl)sulfonyl)-1-(4-(5-(trifluoromethyl)pyridin-2-yl)piperazin-1-yl)propan-1-one] | – | – |
| 1000 to 10000 nM | > 10000 nM | 100 to 1000 nM | O=C(CCS(=O)(=O)c1cccc2ncsc12)N1CCN(c2ccc(Cl)cn2)CC1 [Example 110, 3-(benzo[d]thiazol-7-ylsulfonyl)-1-(4-(5-chloropyridin-2-yl)piperazin-1-yl)propan-1-one] | – | – |

Further lines, the molecule ahead of its results:

| Compound | IC50 (M3) | IC50 (M2; [1]) | IC50 (human M1 receptor; [2]) | IC50 (human M1 receptor) | IC50 (M2) |
| --- | --- | --- | --- | --- | --- |
| O=C(CCOCc1cccc2ncsc12)N1C[C@H]2CC[C@@H](C1)N2c1ccncc1F [Example 85, 3-(benzo[d]thiazol-7-ylmethoxy)-1-((1R,5S)-8-(3-fluoropyridin-4-yl)-3,8-diazabicyclo[3.2.1]octan-3-yl)propan-1-one] | 1000 to 10000 nM | 1000 to 10000 nM | – | < 100 nM | – |
| O=C(COCc1cccc2ncsc12)N1C[C@H]2CC[C@@H](C1)N2c1ccncc1F [Example 86, 2-(benzo[d]thiazol-7-ylmethoxy)-1-((1R,5S)-8-(3-fluoropyridin-4-yl)-3,8-diazabicyclo[3.2.1]octan-3-yl)ethan-1-one] | > 10000 nM | 1000 to 10000 nM | 1000 to 10000 nM | – | – |
| Cc1cc(F)cnc1N1CCN(C(=O)COCc2cccc3ncccc23)[C@@H](C)C1 [Example 87, (S)-1-(4-(5-fluoro-3-methylpyridin-2-yl)-2-methylpiperazin-1-yl)-2-(quinolin-5-ylmethoxy)ethan-1-one] | 1000 to 10000 nM | 1000 to 10000 nM | 1000 to 10000 nM | – | – |
| Cc1cc(F)cnc1N1CCN(C(=O)COCc2cccc3ncsc23)[C@@H](C)C1 [Example 88, (S)-2-(benzo[d]thiazol-7-ylmethoxy)-1-(4-(5-fluoro-3-methylpyridin-2-yl)-2-methylpiperazin-1-yl)ethan-1-one] | > 10000 nM | 1000 to 10000 nM | 1000 to 10000 nM | – | – |
| Cc1cc(F)cnc1N1CCN(C(=O)CNCc2cccc3ncsc23)[C@@H](C)C1 [Example 89, (S)-2-((benzo[d]thiazol-7-ylmethyl)amino)-1-(4-(5-fluoro-3-methylpyridin-2-yl)-2-methylpiperazin-1-yl)ethan-1-one] | > 10000 nM | > 10000 nM | 1000 to 10000 nM | – | – |
| C[C@H]1CN(c2ncc(F)cc2C#N)CCN1C(=O)CCCc1cccc2ncccc12 [Example 90, (S)-5-fluoro-2-(3-methyl-4-(4-(quinolin-5-yl)butanoyl)piperazin-1-yl)nicotinonitrile] | > 10000 nM | 1000 to 10000 nM | > 10000 nM | – | – |
| C[C@H]1CN(c2ncc(F)cc2F)CCN1C(=O)CCCc1cccc2ncccc12 [Example 91, (S)-1-(4-(3,5-difluoropyridin-2-yl)-2-methylpiperazin-1-yl)-4-(quinolin-5-yl)butan-1-one] | 1000 to 10000 nM | 1000 to 10000 nM | 100 to 1000 nM | – | – |
| COc1cnccc1N1CCN(C(=O)CCCc2cccc3ncccc23)[C@@H](C)C1 [Example 92, (S)-1-(4-(3-methoxypyridin-4-yl)-2-methylpiperazin-1-yl)-4-(quinolin-5-yl)butan-1-one] | 1000 to 10000 nM | 100 to 1000 nM | < 100 nM | – | – |
| O=C(CCS(=O)(=O)c1cccc2ncsc12)N1C[C@H]2CC[C@@H](C1)N2c1ccncc1F [Example 95, 3-(benzo[d]thiazol-7-ylsulfonyl)-1-((1R,5S)-8-(3-fluoropyridin-4-yl)-3,8-diazabicyclo[3.2.1]octan-3-yl)propan-1-one] | 100 to 1000 nM | < 100 nM | – | < 100 nM | – |
| Cc1nc2cccc(S(=O)(=O)CCC(=O)N3C[C@H]4CC[C@@H](C3)N4c3ccncc3F)c2o1 [Example 103, 1-((1R,5S)-8-(3-fluoropyridin-4-yl)-3,8-diazabicyclo[3.2.1]octan-3-yl)-3-((2-methylbenzo[d]oxazol-7-yl)sulfonyl)propan-1-one] | 1000 to 10000 nM | – | – | < 100 nM | 100 to 1000 nM |
| O=C(CCS(=O)(=O)c1cccc2nccn12)N1C[C@H]2CC[C@@H](C1)N2c1ccncc1F [Example 104, 1-((1R,5S)-8-(3-fluoropyridin-4-yl)-3,8-diazabicyclo[3.2.1]octan-3-yl)-3-(imidazo[1,2-a]pyridin-5-ylsulfonyl)propan-1-one] | 1000 to 10000 nM | 1000 to 10000 nM | – | < 100 nM | – |
